Measured values from article doi:10.1101/427617v2 (bioRxiv, 2019).

Assays:
[1] = tested on: dural lymphatic cells; test: transferrin-AlexaFluor647 uptake, live cell imaging; format: cell-based, rat
[2] = tested on: dural lymphatic cells; test: pHrodo-dextran uptake, live cell imaging; format: cell-based, rat; settings: 10kD pHrodo-dextran, Dyngo4a at 100-200μM, Fig. 12B, 12D

transferrin-AlexaFluor647: labeled transferrin used to test clathrin-dependent endocytosis
Uptake of labeled transferrin by lymphatic cells [1]: avidly took up

O=C(N/N=C/c1cc(O)c(O)cc1O)c1cc2ccccc2cc1O [Dyngo4a]
Effect of inhibitor on pHrodo dextran uptake [2]: blocked in dose dependent fashion | Effect of inhibitor on transferrin-AlexaFluor647 uptake ([1]; same concentration (100-200μM), Fig. 12C): specifically blocked

CCCCC[C@@H](O)[C@H]1C(=O)O[C@H](C)[C@@H](O)/C=C/C=C/C=C/C=C/C=C(\C)[C@@H](O)C[C@H](O)C[C@H](O)C[C@H](O)C[C@H](O)C[C@H](O)C[C@@H]1O [filipin]
Effect of inhibitor on pHrodo dextran uptake [2]: blocked uptake
